Tests used:
Type in all cases: in vivo
[1] = tested on: pigweed (Amaranthus retroflexus); test: Test A postemergence, visual plant response rating; details: for Pigweed plant response rating (0 to 100 scale): 500 g ai/ha, postemergence, 0 is no effect, 100 is complete control; for Pigweed plant response rating: Postemergence, 125 g ai/ha, 0 to 100 scale (0 no effect, 100 complete control)
Outline: (§1)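 Ratings use a 0–100 visual scale (100 = complete control) against untreated controls, scored about 10 days after greenhouse treatment. Test chemicals were formulated in surfactant-containing non-phytotoxic solvent and applied either as soil spray after planting (preemergence) or onto one- to two-leaf, 2–10 cm plants (postemergence).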

[2] = tested on: blackgrass (Alopecurus myosuroides); test: Test A postemergence, visual plant response rating; details: for Blackgrass plant response rating (0 to 100 scale): 500 g ai/ha, postemergence, 0 is no effect, 100 is complete control; for Blackgrass plant response rating: Postemergence, 125 g ai/ha, 0 to 100 scale (0 no effect, 100 complete control)
Outline: as §1

[3] = tested on: barnyardgrass (Echinochloa crus-galli); test: Test A postemergence, visual plant response rating; details: for Barnyardgrass plant response rating (0 to 100 scale): 500 g ai/ha, postemergence, 0 is no effect, 100 is complete control; for Barnyardgrass plant response rating: Postemergence, 125 g ai/ha, 0 to 100 scale (0 no effect, 100 complete control)
Outline: as §1

[4] = tested on: kochia (Kochia scoparia); test: Test A postemergence, visual plant response rating; details: for Kochia plant response rating (0 to 100 scale): 500 g ai/ha, postemergence, 0 is no effect, 100 is complete control; for Kochia plant response rating: Postemergence, 125 g ai/ha, 0 to 100 scale (0 no effect, 100 complete control)
Outline: as §1

[5] = tested on: Italian ryegrass (Lolium multiflorum); test: Test A postemergence, visual plant response rating; details: for Ryegrass, Italian plant response rating (0 to 100 scale): 500 g ai/ha, postemergence, 0 is no effect, 100 is complete control; for Ryegrass, Italian plant response rating: Postemergence, 125 g ai/ha, 0 to 100 scale (0 no effect, 100 complete control)
Outline: as §1

[6] = tested on: foxtail, green (green foxtail, Setaria viridis); test: Test A postemergence, visual plant response rating; details: for Foxtail, Green plant response rating (0 to 100 scale): 500 g ai/ha, postemergence, 0 is no effect, 100 is complete control; for Foxtail, Green plant response rating: Postemergence, 125 g ai/ha, 0 to 100 scale (0 no effect, 100 complete control)
Outline: as §1

[7] = tested on: galium (catchweed bedstraw, Galium aparine); test: Test A postemergence, visual plant response rating; details: for Galium plant response rating (0 to 100 scale): 500 g ai/ha, postemergence, 0 is no effect, 100 is complete control; for Galium plant response rating: Postemergence, 125 g ai/ha, 0 to 100 scale (0 no effect, 100 complete control)
Outline: as §1

[8] = tested on: wheat (Triticum aestivum); test: Test A postemergence, visual plant response rating; details: for Wheat plant response rating (0 to 100 scale): 500 g ai/ha, postemergence, 0 is no effect, 100 is complete control; for Wheat plant response rating: Postemergence, 125 g ai/ha, 0 to 100 scale (0 no effect, 100 complete control)
Outline: as §1

[9] = tested on: corn (Zea mays); test: Test A postemergence, visual plant response rating; details: for Corn plant response rating (0 to 100 scale): 500 g ai/ha, postemergence, 0 is no effect, 100 is complete control; for Corn plant response rating: Postemergence, 125 g ai/ha, 0 to 100 scale (0 no effect, 100 complete control)
Outline: as §1

[10] = tested on: ragweed (common ragweed, Ambrosia elatior); test: Test A postemergence, visual plant response rating; details: for Ragweed plant response rating (0 to 100 scale): 500 g ai/ha, postemergence, 0 is no effect, 100 is complete control; for Ragweed plant response rating: Postemergence, 125 g ai/ha, 0 to 100 scale (0 no effect, 100 complete control)
Outline: as §1

[11] = tested on: rice (Oryza sativa); test: Test B flooded paddy test, visual plant response rating; details: 250 g ai/ha, Flood, applied to paddy water, 2-leaf stage, evaluated after 13 to 15 days
Outline: (§2)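 2-leaf plants; pots flooded 3 cm over soil surface; compound dosed straight into the floodwater; depth kept constant; greenhouse 13–15 d; visual rating vs. untreated controls.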

[12] = tested on: barnyardgrass (Echinochloa crus-galli); test: as above; details: 250 g ai/ha, Flood, applied to paddy water, 2-leaf stage, evaluated after 13 to 15 days
Outline: as §2

[13] = tested on: sedge, umbrella (small-flower umbrella sedge, Cyperus difformis); test: as above; details: 250 g ai/ha, Flood, applied to paddy water, 2-leaf stage, evaluated after 13 to 15 days
Outline: as §2

[14] = tested on: ducksalad (Heteranhera limosa); test: as above; details: 250 g ai/ha, Flood, applied to paddy water, 2-leaf stage, evaluated after 13 to 15 days
Outline: as §2

[15] = tested on: pigweed (Amaranthus retroflexus); test: Test A preemergence, visual plant response rating; details: approx. 10 days
Outline: as §1

[16] = tested on: barnyardgrass (Echinochloa crus-galli); test: Test A preemergence, visual plant response rating; details: approx. 10 days
Outline: as §1

[17] = tested on: kochia (Kochia scoparia); test: Test A preemergence, visual plant response rating; details: approx. 10 days
Outline: as §1

[18] = tested on: Italian ryegrass (Lolium multiflorum); test: Test A preemergence, visual plant response rating; details: approx. 10 days
Outline: as §1

[19] = tested on: foxtail, green (green foxtail, Setaria viridis); test: Test A preemergence, visual plant response rating; details: approx. 10 days
Outline: as §1

[20] = tested on: ragweed (common ragweed, Ambrosia elatior); test: Test A preemergence, visual plant response rating; details: approx. 10 days
Outline: as §1

| Structure (SMILES) | Pigweed plant response rating (0 to 100 scale) [1] | Pigweed plant response rating [1] | Blackgrass plant response rating (0 to 100 scale) [2] | Blackgrass plant response rating [2] | Barnyardgrass plant response rating (0 to 100 scale) [3] | Barnyardgrass plant response rating [3] | Kochia plant response rating (0 to 100 scale) [4] | Kochia plant response rating [4] | Ryegrass, Italian plant response rating (0 to 100 scale) [5] | Ryegrass, Italian plant response rating [5] | Foxtail, Green plant response rating (0 to 100 scale) [6] | Foxtail, Green plant response rating [6] | Galium plant response rating (0 to 100 scale) [7] | Galium plant response rating [7] | Wheat plant response rating (0 to 100 scale) [8] | Wheat plant response rating [8] | Corn plant response rating (0 to 100 scale) [9] | Corn plant response rating [9] | Ragweed plant response rating (0 to 100 scale) [10] | Ragweed plant response rating [10] | further results |
| --- | --- | --- | --- | --- | --- | --- | --- | --- | --- | --- | --- | --- | --- | --- | --- | --- | --- | --- | --- | --- | --- |
| Cc1ccccc1/C(=N/OC(C)C)c1c(O)c(C)nn(C)c1=O [Compound 19] | 80 | 70 | 50 | 10 | 60 | 20 | 30 | 10 | 30 | 20 | 50 | 10 | 90 | 80 | 0 | 0 | 0 | 0 | 80 | 70 | Plant response rating, Rice (0 to 100 scale, 0 is no effect, 100 is complete control) [11]: 0; Plant response rating, Barnyardgrass (0 to 100 scale, 0 is no effect, 100 is complete control) [12]: 0; Plant response rating, Sedge, Umbrella (0 to 100 scale, 0 is no effect, 100 is complete control) [13]: 0; Plant response rating, Ducksalad (0 to 100 scale, 0 is no effect, 100 is complete control) [14]: 0; Pigweed plant response rating (0 to 100 scale) ([15]; 125 g ai/ha Preemergence): 0; Pigweed plant response rating (0 to 100 scale) ([15]; 500 g ai/ha Preemergence): 80; Barnyardgrass plant response rating (0 to 100 scale) ([16]; 125 g ai/ha Preemergence): 50; Barnyardgrass plant response rating (0 to 100 scale) ([16]; 500 g ai/ha Preemergence): 60; Kochia plant response rating (0 to 100 scale) ([17]; 125 g ai/ha Preemergence): 0; Kochia plant response rating (0 to 100 scale) ([17]; 500 g ai/ha Preemergence): 0; Ryegrass, Italian plant response rating (0 to 100 scale) ([18]; 125 g ai/ha Preemergence): 0; Ryegrass, Italian plant response rating (0 to 100 scale) ([18]; 500 g ai/ha Preemergence): 50; Foxtail, Green plant response rating (0 to 100 scale) ([19]; 125 g ai/ha Preemergence): 0; Foxtail, Green plant response rating (0 to 100 scale) ([19]; 500 g ai/ha Preemergence): 40; Ragweed plant response rating (0 to 100 scale) ([20]; 125 g ai/ha Preemergence): 50; Ragweed plant response rating (0 to 100 scale) ([20]; 500 g ai/ha Preemergence): 80 |
| CCO/N=C(/c1ccccc1C)c1c(O)c(C)nn(C)c1=O [Compound 15] | 30 | 20 | 60 | 30 | 30 | 10 | 20 | 0 | 80 | 60 | 30 | 10 | 90 | 80 | 0 | 0 | 10 | 0 | 80 | 60 | Plant response rating, Rice (0 to 100 scale, 0 is no effect, 100 is complete control) [11]: 0; Plant response rating, Barnyardgrass (0 to 100 scale, 0 is no effect, 100 is complete control) [12]: 0; Plant response rating, Sedge, Umbrella (0 to 100 scale, 0 is no effect, 100 is complete control) [13]: 0; Plant response rating, Ducksalad (0 to 100 scale, 0 is no effect, 100 is complete control) [14]: 0; Pigweed plant response rating (0 to 100 scale) ([15]; 125 g ai/ha Preemergence): 60; Pigweed plant response rating (0 to 100 scale) ([15]; 500 g ai/ha Preemergence): 70; Barnyardgrass plant response rating (0 to 100 scale) ([16]; 125 g ai/ha Preemergence): 30; Barnyardgrass plant response rating (0 to 100 scale) ([16]; 500 g ai/ha Preemergence): 80; Kochia plant response rating (0 to 100 scale) ([17]; 125 g ai/ha Preemergence): 0; Kochia plant response rating (0 to 100 scale) ([17]; 500 g ai/ha Preemergence): 10; Ryegrass, Italian plant response rating (0 to 100 scale) ([18]; 125 g ai/ha Preemergence): 70; Ryegrass, Italian plant response rating (0 to 100 scale) ([18]; 500 g ai/ha Preemergence): 80; Foxtail, Green plant response rating (0 to 100 scale) ([19]; 125 g ai/ha Preemergence): 0; Foxtail, Green plant response rating (0 to 100 scale) ([19]; 500 g ai/ha Preemergence): 60; Ragweed plant response rating (0 to 100 scale) ([20]; 125 g ai/ha Preemergence): 30; Ragweed plant response rating (0 to 100 scale) ([20]; 500 g ai/ha Preemergence): 90 |

— patent US20210045385A1, “PYRIDAZINONE-SUBSTITUTED KETOXIMES AS HERBICIDES” (FMC Corporation, priority 2018, published 2021)
